Measurements: patent US20240122932A1, “Methods of Treating B-Cell Malignancy Using Bcl-2 Inhibitor” (BeiGene Switzerland GmbH, priority 2021, published 2024)

Legend:
[1] = tested on: JeKo-1 human mantle cell lymphoma (MCL) subcutaneous xenograft; assay: JeKo-1 human MCL subcutaneous xenograft model, Bcl-2 inhibitor with BTK inhibitor; format: in vivo, NCG mice; settings: for TGI (%): day 21
Procedure: JeKo-1 cells were maintained as suspension cell cultures at 37° C. in a 5% CO2 atmosphere. Five to six-week-old female NCG mice were purchased from Gempharmatech of Information Technology Center. All animals were maintained under specific pathogen free (SPF) “full barrier” condition with free access to food and water. […] Mice were fed with complete granulated feed with Co60 radiosterilization (Beijing Ke Ao Xie Li Feed Co., Ltd.). All experiments were carried out in accordance with BeiGene's IACUC.
Re-suspended cells were placed on ice prior to inoculation. […] Each animal was injected subcutaneously with 1×10^7 cells in 200 μL of cell suspension in the right front flank via a 26-gauge needle. After implantation, primary tumor volume was measured in two dimensions using a caliper.
Transplanted animals were randomized into 8 groups with 10 mice per group on day 0 according to transplantation sequence and body weight. […] Treatments were administered by oral gavage (p.o.) in a volume of 10 mL/kg body weight. Body weight was assessed immediately before dosing and volume dosed was adjusted accordingly.
(§1) Individual body weight was recorded twice weekly, with mice being monitored daily for clinical signs of toxicity for the duration of the study. Mice were euthanized using carbon dioxide when their tumor volume reached 2,000 mm^3, the tumor was ulcerated, or body weight loss exceeded 20%.
Tumor volume (TV) was calculated using the formula: TV=0.5×(a×b^2) where a and b are the long and short diameters of the tumor, respectively. […] (treated t=treated tumor volume at time t, vehicle t=vehicle tumor volume at time t)

[2] = tested on: RS4;11 Bcl-2G101V KI acute lymphoblastic leukemia (ALL) subcutaneous xenograft; assay: RS4;11 Bcl-2G101V KI ALL subcutaneous xenograft model; format: in vivo, NCG mice
Procedure: The RS4;11 Bcl-2G101V KI cells are of acute lymphoblastic leukemia (ALL) origin and were screened in house. Cells were grown in RPMI 1640 medium (Corning, Cat #10-040-CVR), supplemented with 10% (v/v) fetal bovine serum (Gibco, Cat #10099-141C), and 100 μg/mL of penicillin and streptomycin (Gibco, Cat #15140-122). […] Five to six-week-old female NCG mice were supplied by GemPharmatech Co., Ltd, Jiangsu, China. All animals were maintained under specific pathogen free (SPF) “full barrier” condition with free access to food and water. Mice were group-housed under a 12 h light:dark cycle (lights on at 08:00 h), at a temperature of 20-26° C. and 37-62% humidity in WC cages (Lingyunboji (Beijing) Technology Co., Ltd.). Mice were fed with complete granulated feed with Co60 radio sterilization (Beijing Ke Ao Xie Li Feed Co., Ltd.).
Re-suspended cells were placed on ice prior to inoculation. The right front flank region of each mouse was cleaned with 75% ethanol prior to cell inoculation. Each animal was injected subcutaneously with 1×10^7 cells in 200 μL of cell suspension in the right front flank via a 26-gauge needle. After implantation, primary tumor volume was measured in two dimensions using a caliper.
Animals were randomly assigned into 7 groups with 8 mice per group according to body weight and tumor volume (around 300 mm^3). The groups consisted of vehicle group, 15, 50 and 100 mg/kg of venetoclax with QD dosing, 15, 50 and 100 mg/kg of Compound 1 with QD dosing. Treatments were administered by oral gavage (p.o.) in a volume of […]. Body weight was assessed immediately before dosing and volume dosed was adjusted accordingly.
as §1
Tumor volume was calculated using the formula: V=0.5×(a×b^2) where a and b are the long and short diameters of the tumor, respectively.

Question: How did the “Mean TV (D 21) (mm^3 ± SEM)” value ([1]; 5 mpk p.o. QD) turn out when `CC(C)c1ccccc1[C@@H]1CCCN1C1CC2(CCN(c3ccc(C(=O)NS(=O)(=O)c4ccc(NCC5CCC(C)(O)CC5)c([N+](=O)[O-])c4)c(Oc4cnc5[nH]ccc5c4)c3)CC2)C1` (stereo partly drawn) [Compound 1, 2-((1H-pyrrolo[2,3-b]pyridin-5-yl)oxy)-N-((4-((((1r,4r)-4-hydroxy-4-methylcyclohexyl)methyl)amino)-3-nitrophenyl)sulfonyl)-4-(2-((S)-2-(2-isopropylphenyl)pyrrolidin-1-yl)-7-azaspiro[3.5]nonan-7-yl)benzamide] was run?
Answer: The value was 1293.3 ± 100.0 mm^3.

Question: And the “Mean TV (D 21) (mm^3 ± SEM)” value ([1]; 15 mpk p.o. QD)?
Answer: The value was 929.5 ± 73.6 mm^3.

Question: And the “Mean TV (D 21) (mm^3 ± SEM)” value ([1]; 50 mpk p.o. QD)?
Answer: The value was 927.5 ± 100.6 mm^3.

Question: And the “TGI (%)” value ([1]; 5 mpk p.o. QD, 5 mg/kg)?
Answer: Its value is 29%.

Question: And the “TGI (%)” value ([1]; 15 mpk p.o. QD, 15 mg/kg)?
Answer: Its value is 49%.

Question: And the “TGI (%)” value ([1]; 50 mpk p.o. QD, 50 mg/kg)?
Answer: Its value is 49%.

Question: For `CC1(C)CCC(CN2CCN(c3ccc(C(=O)NS(=O)(=O)c4ccc(NCC5CCOCC5)c([N+](=O)[O-])c4)c(Oc4cnc5[nH]ccc5c4)c3)CC2)=C(c2ccc(Cl)cc2)C1` [Venetoclax, reference compound], which “Mean Tumor Volume (Day 10) (mm^3 ± SEM)” value ([2]; 15 mg/kg QD × 10 p.o.) is on record?
Answer: The value was 976.6 ± 64.0 mm^3.

Question: What about the “TGI (Day 10)” value ([2]; 15 mg/kg QD × 10 p.o.) of the same compound?
Answer: Its value is 44%.

Question: What about the “Mean Tumor Volume (Day 10) (mm^3 ± SEM)” value ([2]; 50 mg/kg QD × 10 p.o.) of the same compound?
Answer: The value was 711.8 ± 49.7 mm^3.

Question: What about the “TGI (Day 10)” value ([2]; 50 mg/kg QD × 10 p.o.) of the same compound?
Answer: The value was 65%.

Question: What about the “Mean Tumor Volume (Day 10) (mm^3 ± SEM)” value ([2]; 100 mg/kg QD × 10 p.o.) of the same compound?
Answer: Its value is 530.4 ± 75.4 mm^3.

Question: And the “TGI (Day 10)” value ([2]; 100 mg/kg QD × 10 p.o.)?
Answer: The value was 80%.
